From ChEMBL document CHEMBL4190186 (Medchemcomm, 2016)
The source made the active and inactive calls. The rule behind the calls is not given here.

Columns and labels:
LN-18 [1] = experiment: Cytotoxicity against human LN18 cells harboring TP53 mutation assessed as cell death at 20 uM after 48 hrs by MTT assay relative to control; format: functional
T98G [2] = experiment: Cytotoxicity against PTEN/TP53 deficient human T98G cells assessed as cell death at 20 uM after 48 hrs by MTT assay relative to control; format: functional
LN-18 [3] = experiment: Cytotoxicity against human LN18 cells harboring TP53 mutation after 48 hrs by MTT assay; format: functional, cell-based
T98G [4] = experiment: Effect on H3K27me3 levels in PTEN/TP53 deficient human T98G cells at 20 uM after 24 to 48 hrs by Western blot analysis; format: ADME, cell-based
T98G [5] = experiment: Induction of apoptosis in PTEN/TP53 deficient human T98G cells assessed as increase in cleaved PARP expression at 20 uM after 24 to 48 hrs by Western blot analysis; format: functional, cell-based
T98G [6] = experiment: Induction of apoptosis in PTEN/TP53 deficient human T98G cells assessed as increase in cleaved caspase-9 expression at 20 uM after 24 to 48 hrs by Western blot analysis; format: functional, cell-based
LN-18 [7] = experiment: Effect on H3K27me3 levels in human LN18 cells harboring TP53 mutation at 20 uM after 24 to 48 hrs by Western blot analysis; format: ADME, cell-based; details: ln-18, 20 µM
T98G [8] = experiment: Induction of apoptosis in PTEN/TP53 deficient human T98G cells assessed as increase in cleaved caspase-3 expression at 20 uM after 24 to 48 hrs by Western blot analysis; format: functional, cell-based
LN-18 [9] = experiment: Induction of apoptosis in human LN18 cells harboring TP53 mutation assessed as increase in cleaved caspase-8 expression at 20 uM after 24 to 48 hrs by Western blot analysis; format: functional, cell-based
T98G [10] = experiment: Induction of apoptosis in PTEN/TP53 deficient human T98G cells assessed as increase in cleaved caspase-8 expression at 20 uM after 24 to 48 hrs by Western blot analysis; format: functional, cell-based
LN-18 [11] = experiment: Induction of apoptosis in human LN18 cells harboring TP53 mutation assessed as increase in cleaved PARP expression at 20 uM after 24 to 48 hrs by Western blot analysis; format: functional, cell-based
Astrocyte = experiment: Cytotoxicity against rat primary cortical astrocytes assessed as reduction in cell viability at 5 to 40 uM after 48 hrs by MTT assay relative to control; format: cell-based
LN-18 [12] = experiment: Induction of apoptosis in human LN18 cells harboring TP53 mutation assessed as increase in cleaved caspase-9 expression at 20 uM after 24 to 48 hrs by Western blot analysis; format: functional, cell-based
LN-18 [13] = experiment: Induction of apoptosis in human LN18 cells harboring TP53 mutation assessed as increase in cleaved caspase-3 expression at 20 uM after 24 to 48 hrs by Western blot analysis; format: functional, cell-based
T98G [14] = experiment: Cytotoxicity against PTEN/TP53 deficient human T98G cells after 48 hrs by MTT assay; format: functional, cell-based
NCI-H460 = experiment: Cytotoxicity against human NCI-H460 cells; format: functional, cell-based

Question: What does the source list for O=C1Nc2ccccc2/C1=C/c1ccc(-c2ccccc2)cc1?
Answer: Activity (LN-18 [1]): Active; Activity (T98G [2]): Active

Question: Which results are given for CON1C(=O)/C(=C\c2ccc(-c3ccccc3)cc2)c2ccccc21?
Answer: Activity (LN-18 [1]): Active; Activity (T98G [2]): Active

Question: Which results are given for Cc1[nH]c2ccccc2c1/C=C/c1ccccc1-c1ccc(/C=C/C(=O)NO)cc1?
Answer: Activity (LN-18 [3]): Dose-dependent effect; Activity (T98G [4]): Non-Toxic; Activity (LN-18 [1]): >70%; Activity (T98G [5]): Active; Activity (T98G [6]): Active; Activity (LN-18 [7]): Non-Toxic; Activity (T98G [8]): Active; Activity (LN-18 [9]): Active; Activity (T98G [10]): Active; Activity (LN-18 [11]): Active; Activity (T98G [2]): >70%; Activity (Astrocyte): Non-Toxic; Activity (LN-18 [12]): Active; Activity (LN-18 [13]): Active; Activity (T98G [14]): Dose-dependent effect

Question: Which results are given for O=C1c2ccccc2C(=O)c2c(-c3ccccc3)nsc21?
Answer: Activity (LN-18 [3]): Dose-dependent effect; Activity (T98G [4]): Non-Toxic; Activity (LN-18 [1]): >50 - 70%; IC50 (NCI-H460): 360 nM; Activity (T98G [5]): inactive; Activity (T98G [6]): inactive; Activity (LN-18 [7]): Non-Toxic; Activity (T98G [8]): inactive; Activity (LN-18 [9]): inactive; Activity (T98G [10]): inactive; Activity (LN-18 [11]): inactive; Activity (T98G [2]): >50 - 70%; Activity (Astrocyte): > 50%; Activity (LN-18 [12]): inactive; Activity (LN-18 [13]): inactive; Activity (T98G [14]): Dose-dependent effect

Question: What does the source list for NNC(=O)/C=C/c1ccc(-c2ccccc2)cc1?
Answer: Activity (LN-18 [1]): Active; Activity (T98G [2]): Active

Question: What does the source list for Cc1[nH]c2ccccc2c1/C=C/c1ccccc1-c1ccc(/C=C/C(=O)Nc2cc(-c3ccccc3)ccc2O)cc1?
Answer: Activity (LN-18 [1]): Active; Activity (T98G [2]): Active

Question: With O=C1Nc2ccc(Cl)cc2/C1=C/c1ccc(-c2ccccc2)cc1 as the compound, how does the Activity (LN-18 [1]) read?
Answer: Its Activity is “Active”.

Question: What about the Activity (T98G [2]) of the same compound?
Answer: Its Activity is “Active”.

Question: Which Activity (LN-18 [1]) does the source give for COc1ccc(-c2ccc(/C=C/C(=O)NO)cc2)cc1 here?
Answer: Its Activity is “Active”.

Question: And the Activity (T98G [2])?
Answer: Its Activity is “Active”.

Question: What does the source list for O=C(Nc1ccccc1)Nc1ccc(/C=C2\C(=O)Nc3ccccc32)cc1?
Answer: Activity (LN-18 [1]): inactive; Activity (T98G [2]): inactive

Question: What does the source list for O=C(/C=C/c1ccc(-c2ccccc2)cc1)NO?
Answer: Activity (LN-18 [1]): Active; Activity (T98G [2]): Active

Question: With CN(C)c1nsc2c1C(=O)c1ccccc1C2=O as the compound, how does the Activity (LN-18 [3]) read?
Answer: Its Activity is “Dose-dependent effect”.

Question: What about the Activity (T98G [4]) of the same compound?
Answer: Its Activity is “Non-Toxic”.

Question: And the Activity (LN-18 [1])?
Answer: Its Activity is >50 - 70%.

Question: What about the IC50 (NCI-H460) of the same compound?
Answer: The IC50 was 220 nM.

Question: And the Activity (T98G [5])?
Answer: Its Activity is “inactive”.

Question: What about the Activity (T98G [6]) of the same compound?
Answer: The Activity was “inactive”.

Question: What about the Activity (LN-18 [7]) of the same compound?
Answer: The Activity was “Non-Toxic”.

Question: What about the Activity (T98G [8]) of the same compound?
Answer: The Activity was “inactive”.

Question: And the Activity (LN-18 [9])?
Answer: The Activity was “inactive”.

Question: And the Activity (T98G [10])?
Answer: The Activity was “inactive”.

Question: What about the Activity (LN-18 [11]) of the same compound?
Answer: Its Activity is “inactive”.

Question: What about the Activity (T98G [2]) of the same compound?
Answer: The Activity was >50 - 70%.

Question: And the Activity (LN-18 [12])?
Answer: Its Activity is “inactive”.

Question: And the Activity (LN-18 [13])?
Answer: Its Activity is “inactive”.

Question: And the Activity (T98G [14])?
Answer: Its Activity is “Dose-dependent effect”.

Question: Which results are given for Nc1nsc2c1C(=O)c1ccccc1C2=O?
Answer: Activity (LN-18 [1]): >50 - 70%; IC50 (NCI-H460): 280 nM; Activity (T98G [2]): >50 - 70%

Question: O=C(Nc1ccccc1)Nc1ccc(/C=C2\C(=O)N(O)c3ccccc32)cc1 was tested. Which Activity (LN-18 [1]) did it give?
Answer: Its Activity is “inactive”.

Question: What about the Activity (T98G [2]) of the same compound?
Answer: Its Activity is “inactive”.

Question: For NNC(=O)N/C=C/c1ccc(-c2ccccc2)cc1, which Activity (LN-18 [1]) is on record?
Answer: The Activity was “Active”.

Question: What about the Activity (T98G [2]) of the same compound?
Answer: The Activity was “Active”.

Question: What does the source list for O=C1/C(=C\c2ccc(O)cc2)c2ccccc2N1O?
Answer: Activity (LN-18 [1]): inactive; Activity (T98G [2]): inactive

Question: What does the source list for O=C1/C(=C\c2ccc(-c3ccccc3)cc2)c2ccccc2N1O?
Answer: Activity (LN-18 [1]): Active; Activity (T98G [2]): Active
